Laboratory results taken from article PMC12113347, “Compound 3d Attenuates Metabolic Dysfunction-Associated Steatohepatitis via Peroxisome Proliferator-Activated Receptor Pathway Activation and Inhibition of Inflammatory and Apoptotic Signaling” (Metabolites, 2025).

Columns and labels:
C57BL/6J male mice = assay: HFD-induced MASH model in mice: serum and liver biochemistry, body and liver weight, histology; format: in vivo; details: HFD mice; for body weight: 8 weeks of treatment; for serum TG levels: 8 weeks, fenofibrate 100 mg/kg, elafibranor 30 mg/kg, 3d 3, 10, 30 mg/kg; for liver weight/body weight: indicator for evaluating drug toxicity
Procedure: All animal studies were conducted in accordance with national legislation and local guidelines at the Center for Laboratory Animals in Tianjin University of Science and Technology and approved by the Animal Ethics Committee of Tianjin University of Science and Technology (8 March 2022, Tianjin, China). The C57BL/6J male mice (6 weeks) were purchased from Henan Scribex Biotechnology Co, Ltd (Zhenzhou, China). Following a one-week period of acclimatization, the mice were fed a high-fat diet (HFD) comprising 60% fat (TP23300, Trophic Animal Feed High-Tech Co., Ltd., (Nantong, China)) and a low-fat control diet (TP23302, Trophic Animal Feed High-Tech Co., Ltd., (Nantong, China)) for 16 weeks.
After 16 weeks of continuous feeding on a high-fat diet, key indicators were tested to determine modeling success and drug administration was initiated. The mice were randomly divided into seven groups (n = 10) according to their body weight. The groups were as follows: control group (control diet, 0.5% CMC-Na), model group (HFD, 0.5% CMC-Na), positive control group (HFD, 100 mg/kg Fenofibrate), elafibranor group (HFD, 30 mg/kg), and 3d group (HFD, 3, 10, 30 mg/kg). The experiment was conducted over a period of eight weeks.
After fasting for 12 h, the mice were anaesthetized and blood samples were collected, as were the mice liver tissues. The ileal contents were collected and immediately frozen in liquid nitrogen and then transferred to storage at −80 °C. The blood samples were subjected to centrifugation at 3000 rpm/min for 10 min to obtain supernatant serum, which was stored at −80 °C. The liver tissues were weighed, and a portion of the liver was preserved in 4% paraformaldehyde for subsequent pathological sectioning, including staining with H&E, Masson, and Oil Red O. The remaining samples were stored at −80 °C for testing of various biochemical indices.
The serum levels of TG, total cholesterol (TC), low-density lipoprotein cholesterol (LDL-C), […] aminotransferase (AST), ALT, and TNF-α were determined according to the instructions of the kit. The levels of glutathione (GSH) and superoxide dismutase (SOD) were measured using liver tissue homogenates. The kits were purchased from the Nanjing Jiancheng Institute of Biological Engineering (Nanjing, China).

[1] = In vitro stability in DMEM medium, simulated gastric fluid and simulated intestinal fluid (HPLC); format: in vitro ADME; details: 40 μM, 37 °C
Procedure: Elafibranor and 3d (40 μM) were dissolved in DMEM medium, as well as in simulated gastric fluid (SGF) and simulated intestinal fluid (SIF), respectively, at 37 °C. The concentration of the compounds was determined within 24 h by HPLC. The HPLC conditions comprised an ACQUITY UPLC BEH C18 column maintained at 40 °C with a mobile phase consisting of 20% ultrapure water and 80% acetonitrile, with a flow rate of 1 mL/min at 360 nm.

[2] = in vivo; cited from earlier work

Row | SMILES | liver steatosis and lipid accumulation (HE, Oil Red O sections) (C57BL/6J male mice) | body weight (C57BL/6J male mice) | serum TG levels (C57BL/6J male mice) | liver weight/body weight (C57BL/6J male mice) | concentration in culture medium (stability) ([1]; DMEM, within 24 h) | concentration in gastric fluid (stability) ([1]; SGF) | concentration in intestinal fluid (stability) ([1]; SIF, within 24 h) | oral bioavailability [2]
1 | CSc1ccc(C(=O)/C=C/c2cc(C)c(OC(C)(C)C(=O)O)c(C)c2)cc1 [elafibranor, Elafibranor, reference compound] | effective in reducing the degree of steatosis and reducing lipid accumulation better than fenofibrate but still could not bring them back to fully normal | decrease in body weight | decreased and returned to normal levels | substantial influence on the rise | remained relatively constant | decreased significantly after 60 min | remained relatively constant | around 30%
2 | CC(C)OC(=O)C(C)(C)Oc1ccc(C(=O)c2ccc(Cl)cc2)cc1 [fenofibrate, Fenofibrate, reference compound] | improved the steatosis and reduced lipid accumulation in the liver to some extent | decrease in body weight | decreased and returned to normal levels | substantial influence on the rise |  |  |  | 
